Test results reported in paper PMC9898036, “VIP152 is a selective CDK9 inhibitor with pre-clinical in vitro and in vivo efficacy in chronic lymphocytic leukemia” (Leukemia, 2022).
Read-outs that look alike come from different tables or passages of the source.

Tests used:
Test in all cases: DiscoverX KINOMEscan kinase profiling (468 assays)
Assay type in all cases: binding
human kinome [1] = target: human kinome (Homo sapiens, UniProt Q9C098); details: DCAMKL3 (Entrez DCLK3); 100 nM; read-out: Percent Control
How it was run: (§1)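 DNA-tagged kinases competed for immobilized biotinylated ligands on streptavidin magnetic beads, with bound kinase quantified by qPCR. VIP152 in DMSO was tested against a DMSO control.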

human kinome [2] = target: human kinome (Homo sapiens, UniProt Q9Y2K2); details: read-out: Percent Control
Sequence of human kinome (Homo sapiens, UniProt Q9Y2K2) (Q9Y2K2 whole entry): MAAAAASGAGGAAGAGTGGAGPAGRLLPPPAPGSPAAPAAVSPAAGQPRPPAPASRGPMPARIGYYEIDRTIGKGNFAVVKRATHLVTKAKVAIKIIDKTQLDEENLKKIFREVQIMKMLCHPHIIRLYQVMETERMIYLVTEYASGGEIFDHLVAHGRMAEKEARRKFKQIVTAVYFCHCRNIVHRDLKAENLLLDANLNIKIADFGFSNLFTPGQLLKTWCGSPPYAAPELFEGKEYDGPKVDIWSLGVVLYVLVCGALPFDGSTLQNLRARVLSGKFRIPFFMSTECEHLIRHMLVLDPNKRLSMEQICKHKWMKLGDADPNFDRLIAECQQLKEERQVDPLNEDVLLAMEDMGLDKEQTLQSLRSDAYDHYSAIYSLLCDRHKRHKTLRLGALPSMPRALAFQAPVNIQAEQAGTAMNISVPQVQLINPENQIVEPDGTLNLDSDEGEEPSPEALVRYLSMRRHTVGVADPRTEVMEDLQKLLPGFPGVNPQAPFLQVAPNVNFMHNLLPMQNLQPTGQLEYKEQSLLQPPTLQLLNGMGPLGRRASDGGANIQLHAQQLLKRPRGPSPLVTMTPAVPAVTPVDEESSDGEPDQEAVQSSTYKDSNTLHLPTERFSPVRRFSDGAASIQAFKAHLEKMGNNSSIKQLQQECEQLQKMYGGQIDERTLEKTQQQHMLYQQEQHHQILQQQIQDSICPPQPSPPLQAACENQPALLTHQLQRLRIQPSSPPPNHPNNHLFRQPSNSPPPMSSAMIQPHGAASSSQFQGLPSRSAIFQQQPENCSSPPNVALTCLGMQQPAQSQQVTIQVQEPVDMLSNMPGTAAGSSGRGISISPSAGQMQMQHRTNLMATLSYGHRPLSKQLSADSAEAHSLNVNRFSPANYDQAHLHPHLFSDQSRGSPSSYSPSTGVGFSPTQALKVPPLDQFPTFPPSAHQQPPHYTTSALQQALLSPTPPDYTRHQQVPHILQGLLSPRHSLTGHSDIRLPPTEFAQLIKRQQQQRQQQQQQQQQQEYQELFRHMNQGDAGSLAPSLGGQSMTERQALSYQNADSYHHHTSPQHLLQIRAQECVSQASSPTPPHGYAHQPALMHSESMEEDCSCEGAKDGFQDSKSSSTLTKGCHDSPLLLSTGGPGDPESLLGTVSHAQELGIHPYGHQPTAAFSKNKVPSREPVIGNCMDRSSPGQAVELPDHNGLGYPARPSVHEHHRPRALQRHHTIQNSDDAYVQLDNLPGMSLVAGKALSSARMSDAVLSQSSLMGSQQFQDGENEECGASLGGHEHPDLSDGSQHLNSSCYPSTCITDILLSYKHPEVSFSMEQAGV
How it was run: as §1

human kinome [3] = target: human kinome (Homo sapiens, UniProt Q8NEV4); details: read-out: Percent Control
Sequence of human kinome (Homo sapiens, UniProt Q8NEV4) (Q8NEV4 whole entry): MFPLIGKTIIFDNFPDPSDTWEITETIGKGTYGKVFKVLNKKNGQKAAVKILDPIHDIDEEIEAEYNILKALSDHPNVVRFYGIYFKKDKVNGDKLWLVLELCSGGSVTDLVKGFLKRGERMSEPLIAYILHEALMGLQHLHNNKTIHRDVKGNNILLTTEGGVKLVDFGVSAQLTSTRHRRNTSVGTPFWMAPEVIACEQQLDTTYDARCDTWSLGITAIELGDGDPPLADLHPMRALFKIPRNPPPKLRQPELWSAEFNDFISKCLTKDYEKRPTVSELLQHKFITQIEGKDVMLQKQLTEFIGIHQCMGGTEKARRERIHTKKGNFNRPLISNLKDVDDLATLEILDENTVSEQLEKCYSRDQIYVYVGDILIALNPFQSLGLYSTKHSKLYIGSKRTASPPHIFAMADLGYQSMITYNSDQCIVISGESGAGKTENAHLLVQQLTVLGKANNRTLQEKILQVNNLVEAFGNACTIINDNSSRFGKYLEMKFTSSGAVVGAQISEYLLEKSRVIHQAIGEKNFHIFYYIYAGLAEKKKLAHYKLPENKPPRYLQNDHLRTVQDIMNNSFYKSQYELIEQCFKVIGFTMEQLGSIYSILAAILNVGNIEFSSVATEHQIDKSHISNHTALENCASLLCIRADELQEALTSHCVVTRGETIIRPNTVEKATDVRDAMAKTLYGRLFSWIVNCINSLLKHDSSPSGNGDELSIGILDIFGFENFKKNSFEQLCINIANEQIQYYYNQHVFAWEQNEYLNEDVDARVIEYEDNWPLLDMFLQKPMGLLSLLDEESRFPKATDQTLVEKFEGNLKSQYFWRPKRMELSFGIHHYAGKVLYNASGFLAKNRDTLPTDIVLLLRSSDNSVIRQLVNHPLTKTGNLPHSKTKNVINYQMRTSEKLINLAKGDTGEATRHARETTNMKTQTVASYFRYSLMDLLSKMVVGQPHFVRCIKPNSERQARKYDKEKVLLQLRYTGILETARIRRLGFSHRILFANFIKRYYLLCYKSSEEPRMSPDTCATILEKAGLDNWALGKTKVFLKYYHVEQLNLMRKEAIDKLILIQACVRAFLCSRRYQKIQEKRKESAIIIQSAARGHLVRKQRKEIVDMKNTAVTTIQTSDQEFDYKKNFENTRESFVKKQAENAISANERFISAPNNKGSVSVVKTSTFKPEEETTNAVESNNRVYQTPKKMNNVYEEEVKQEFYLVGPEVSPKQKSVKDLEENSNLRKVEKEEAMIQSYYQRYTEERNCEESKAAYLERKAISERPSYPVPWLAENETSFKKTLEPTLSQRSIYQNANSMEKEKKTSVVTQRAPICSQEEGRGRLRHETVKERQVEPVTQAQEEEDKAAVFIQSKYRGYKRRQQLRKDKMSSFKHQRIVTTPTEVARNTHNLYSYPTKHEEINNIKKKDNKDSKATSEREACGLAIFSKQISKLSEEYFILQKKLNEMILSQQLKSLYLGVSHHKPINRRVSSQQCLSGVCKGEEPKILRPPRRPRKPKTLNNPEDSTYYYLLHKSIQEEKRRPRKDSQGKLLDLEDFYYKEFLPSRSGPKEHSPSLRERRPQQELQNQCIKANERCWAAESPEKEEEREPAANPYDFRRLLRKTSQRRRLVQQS
How it was run: as §1

human kinome [4] = target: human kinome (Homo sapiens, UniProt O14936); details: CASK; 100 nM; read-out: Percent Control
How it was run: as §1

human kinome [5] = target: human kinome (Homo sapiens, UniProt P31751); details: AKT2; 100 nM; read-out: Percent Control
How it was run: as §1

human kinome [6] = target: human kinome (Homo sapiens, UniProt Q86UX6); details: kinase YANK3 (Entrez STK32C); compound concentration 1000 nM; read-out: Percent Control
How it was run: as §1

human kinome [7] = target: human kinome (Homo sapiens, UniProt Q08345); details: DDR1; 100 nM; read-out: Percent Control
How it was run: as §1

human kinome [8] = target: human kinome (Homo sapiens, UniProt P16234); details: read-out: Percent Control
Sequence of human kinome (Homo sapiens, UniProt P16234) (P16234 24-1089): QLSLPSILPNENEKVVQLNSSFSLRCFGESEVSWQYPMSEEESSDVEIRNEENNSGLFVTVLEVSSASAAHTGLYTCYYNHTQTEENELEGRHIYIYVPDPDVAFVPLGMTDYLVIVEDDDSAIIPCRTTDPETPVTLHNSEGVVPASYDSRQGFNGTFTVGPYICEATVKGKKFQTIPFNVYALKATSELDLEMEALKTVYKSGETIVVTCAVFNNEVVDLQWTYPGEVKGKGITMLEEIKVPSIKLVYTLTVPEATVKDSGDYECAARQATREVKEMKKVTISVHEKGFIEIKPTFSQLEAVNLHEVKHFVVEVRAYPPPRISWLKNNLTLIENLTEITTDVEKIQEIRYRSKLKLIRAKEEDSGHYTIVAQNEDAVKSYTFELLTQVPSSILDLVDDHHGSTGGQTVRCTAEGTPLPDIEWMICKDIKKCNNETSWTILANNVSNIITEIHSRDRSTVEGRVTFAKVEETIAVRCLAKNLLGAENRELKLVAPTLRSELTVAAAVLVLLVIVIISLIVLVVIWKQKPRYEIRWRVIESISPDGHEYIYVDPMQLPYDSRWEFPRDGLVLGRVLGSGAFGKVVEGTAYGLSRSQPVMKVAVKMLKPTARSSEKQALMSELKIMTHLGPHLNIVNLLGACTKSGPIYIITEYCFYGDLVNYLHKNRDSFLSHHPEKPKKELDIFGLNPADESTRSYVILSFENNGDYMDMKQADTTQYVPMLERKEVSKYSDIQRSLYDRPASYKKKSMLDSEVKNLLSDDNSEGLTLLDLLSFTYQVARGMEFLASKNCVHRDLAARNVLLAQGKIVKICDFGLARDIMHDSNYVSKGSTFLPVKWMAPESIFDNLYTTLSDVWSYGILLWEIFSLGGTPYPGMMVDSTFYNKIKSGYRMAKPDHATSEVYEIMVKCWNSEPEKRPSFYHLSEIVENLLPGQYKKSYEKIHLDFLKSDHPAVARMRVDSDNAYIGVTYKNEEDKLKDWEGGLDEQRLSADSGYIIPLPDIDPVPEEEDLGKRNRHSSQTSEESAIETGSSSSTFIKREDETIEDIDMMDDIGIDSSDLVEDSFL
How it was run: as §1

human kinome [9] = target: human kinome (Homo sapiens, UniProt Q15349); details: compound concentration 1000 nM, read-out: Percent Control
Sequence of human kinome (Homo sapiens, UniProt Q15349) (Q15349 whole entry): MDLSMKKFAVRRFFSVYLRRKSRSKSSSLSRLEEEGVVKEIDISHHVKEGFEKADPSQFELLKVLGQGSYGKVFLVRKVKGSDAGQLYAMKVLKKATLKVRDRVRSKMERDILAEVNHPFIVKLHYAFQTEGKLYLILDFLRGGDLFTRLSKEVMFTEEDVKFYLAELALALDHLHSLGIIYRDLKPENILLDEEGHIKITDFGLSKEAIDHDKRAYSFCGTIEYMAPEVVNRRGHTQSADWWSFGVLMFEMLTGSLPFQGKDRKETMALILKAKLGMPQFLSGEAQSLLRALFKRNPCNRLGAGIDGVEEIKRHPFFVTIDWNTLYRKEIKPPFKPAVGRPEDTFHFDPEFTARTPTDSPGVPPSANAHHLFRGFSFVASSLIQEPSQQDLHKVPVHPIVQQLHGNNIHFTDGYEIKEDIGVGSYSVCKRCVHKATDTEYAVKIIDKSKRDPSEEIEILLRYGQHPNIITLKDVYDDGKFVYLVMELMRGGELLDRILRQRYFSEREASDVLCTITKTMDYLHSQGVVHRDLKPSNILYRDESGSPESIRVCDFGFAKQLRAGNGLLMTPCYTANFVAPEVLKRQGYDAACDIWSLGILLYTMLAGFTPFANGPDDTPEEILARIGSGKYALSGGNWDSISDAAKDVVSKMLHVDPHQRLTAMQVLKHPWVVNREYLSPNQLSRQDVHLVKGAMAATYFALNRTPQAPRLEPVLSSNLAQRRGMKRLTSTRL
How it was run: as §1

human kinome [10] = target: human kinome (Homo sapiens, UniProt O14976); details: GAK; 100 nM; read-out: Percent Control
How it was run: as §1

human kinome [11] = target: human kinome (Homo sapiens, UniProt Q96PN8); details: kinase TSSK3 (Entrez TSSK3); compound concentration 1000 nM; read-out: Percent Control
How it was run: as §1

human kinome [12] = target: human kinome (Homo sapiens, UniProt P08581); details: MET; 100 nM; read-out: Percent Control
How it was run: as §1

human kinome [13] = target: human kinome (Homo sapiens, UniProt Q9Y6M4); details: CSNK1G3; 100 nM; read-out: Percent Control
How it was run: as §1

human kinome [14] = target: human kinome (Homo sapiens, UniProt Q9NY57); details: kinase YANK2 (Entrez STK32B); compound concentration 1000 nM; read-out: Percent Control
How it was run: as §1

human kinome [15] = target: human kinome (Homo sapiens, UniProt Q86Z02); details: HIPK1; 100 nM; read-out: Percent Control
How it was run: as §1

human kinome [16] = details: for Percent Control: 100 nM
How it was run: as §1

human kinome [17] = target: human kinome (Homo sapiens, UniProt Q9P2K8, S808G); details: GCN2(Kin.Dom.2,S808G) (Entrez EIF2AK4); 100 nM; read-out: Percent Control
How it was run: as §1

human kinome [18] = target: human kinome (Homo sapiens, UniProt Q16513); details: read-out: Percent Control
How it was run: as §1

human kinome [19] = target: human kinome (Homo sapiens, UniProt P42336, E545A); details: read-out: Percent Control
How it was run: as §1

human kinome [20] = target: human kinome (Homo sapiens, UniProt P19525); details: read-out: Percent Control
How it was run: as §1

human kinome [21] = target: human kinome (Homo sapiens, UniProt Q02156); details: read-out: Percent Control
How it was run: as §1

human kinome [22] = target: human kinome (Homo sapiens, UniProt Q9BVS4); details: kinase RIOK2 (Entrez RIOK2); compound concentration 1000 nM; read-out: Percent Control
How it was run: as §1

human kinome [23] = target: human kinome (Homo sapiens, UniProt P36507); details: MEK2 (Entrez MAP2K2); 100 nM; read-out: Percent Control
How it was run: as §1

human kinome [24] = target: human kinome (Homo sapiens, UniProt Q16816); details: read-out: Percent Control
Sequence of human kinome (Homo sapiens, UniProt Q16816) (Q16816 whole entry): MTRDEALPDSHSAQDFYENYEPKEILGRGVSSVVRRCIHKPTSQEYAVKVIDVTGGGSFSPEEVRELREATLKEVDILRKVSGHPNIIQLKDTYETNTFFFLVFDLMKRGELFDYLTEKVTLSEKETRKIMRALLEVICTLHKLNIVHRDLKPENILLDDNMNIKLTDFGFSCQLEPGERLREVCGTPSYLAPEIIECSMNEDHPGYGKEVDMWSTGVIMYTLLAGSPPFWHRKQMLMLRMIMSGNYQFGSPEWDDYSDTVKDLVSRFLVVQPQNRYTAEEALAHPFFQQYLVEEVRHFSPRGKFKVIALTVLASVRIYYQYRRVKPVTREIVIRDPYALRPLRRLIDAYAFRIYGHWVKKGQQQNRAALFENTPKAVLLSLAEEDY
How it was run: as §1

human kinome [25] = target: human kinome (Homo sapiens, UniProt Q16832); details: DDR2; 100 nM; read-out: Percent Control
How it was run: as §1

human kinome [26] = target: human kinome (Homo sapiens, UniProt Q9HC98); details: read-out: Percent Control
How it was run: as §1

human kinome [27] = target: human kinome (Homo sapiens, UniProt P06213); details: INSR; 100 nM; read-out: Percent Control
How it was run: as §1

human kinome [28] = target: human kinome (Homo sapiens, UniProt P33981); details: kinase TTK (Entrez TTK); compound concentration 1000 nM; read-out: Percent Control
How it was run: as §1

**Q.** COc1cc(F)ccc1-c1cc(Nc2cc(CS(C)(=N)=O)ccn2)ncc1F (centres unmarked) [VIP152] was tested. Which remaining binding at 0.1 µM (human kinome [1]) did it give?
**A.** The remaining binding at 0.1 µM was 100%.

**Q.** And the remaining binding at 0.1 µM (human kinome [2]; QSK (Entrez KIAA0999), 100 nM)?
**A.** The remaining binding at 0.1 µM was 100%.

**Q.** And the remaining binding at 1 µM (human kinome [2]; kinase QSK (Entrez KIAA0999), compound concentration 1000 nM)?
**A.** The remaining binding at 1 µM was 98%.

**Q.** And the remaining binding at 0.1 µM (human kinome [3]; MYO3A, 100 nM)?
**A.** The remaining binding at 0.1 µM was 100%.

**Q.** And the remaining binding at 1 µM (human kinome [3]; kinase MYO3A (Entrez MYO3A), compound concentration 1000 nM)?
**A.** The remaining binding at 1 µM was 90%.

**Q.** What about the remaining binding at 0.1 µM (human kinome [4]) of the same compound?
**A.** Its remaining binding at 0.1 µM is 78%.

**Q.** What about the remaining binding at 0.1 µM (human kinome [5]) of the same compound?
**A.** The remaining binding at 0.1 µM was 100%.

**Q.** And the remaining binding at 1 µM (human kinome [6])?
**A.** The remaining binding at 1 µM was 95%.

**Q.** What about the remaining binding at 0.1 µM (human kinome [7]) of the same compound?
**A.** The remaining binding at 0.1 µM was 99%.

**Q.** And the remaining binding at 0.1 µM (human kinome [8]; PDGFRA, 100 nM)?
**A.** The remaining binding at 0.1 µM was 100%.

**Q.** And the remaining binding at 1 µM (human kinome [8]; kinase PDGFRA (Entrez PDGFRA), compound concentration 1000 nM)?
**A.** Its remaining binding at 1 µM is 80%.

**Q.** What about the remaining binding at 1 µM (human kinome [9]; kinase RSK3(Kin.Dom.1-N-terminal) (Entrez RPS6KA2)) of the same compound?
**A.** Its remaining binding at 1 µM is 98%.

**Q.** And the remaining binding at 1 µM (human kinome [9]; kinase RSK3(Kin.Dom.2-C-terminal) (Entrez RPS6KA2))?
**A.** Its remaining binding at 1 µM is 92%.

**Q.** What about the remaining binding at 0.1 µM (human kinome [10]) of the same compound?
**A.** Its remaining binding at 0.1 µM is 79%.

**Q.** What about the remaining binding at 1 µM (human kinome [11]) of the same compound?
**A.** The remaining binding at 1 µM was 76%.

**Q.** And the remaining binding at 0.1 µM (human kinome [12])?
**A.** Its remaining binding at 0.1 µM is 57%.

**Q.** What about the remaining binding at 0.1 µM (human kinome [13]) of the same compound?
**A.** Its remaining binding at 0.1 µM is 98%.

**Q.** What about the remaining binding at 1 µM (human kinome [14]) of the same compound?
**A.** Its remaining binding at 1 µM is 98%.

**Q.** What about the remaining binding at 0.1 µM (human kinome [15]) of the same compound?
**A.** The remaining binding at 0.1 µM was 63%.

**Q.** And the “Interactions Mapped” value (human kinome [16]; @100nM, 468 Assays Tested)?
**A.** Its value is 4.

**Q.** What about the “Percent Control” value (human kinome [16]; EGFR(L747-E749del, A750P)) of the same compound?
**A.** The value was 100%.

**Q.** What about the “Percent Control” value (human kinome [16]; EGFR(L747-S752del, P753S)) of the same compound?
**A.** The value was 93%.

**Q.** What about the “Percent Control” value (human kinome [16]; EGFR(L747-T751del,Sins)) of the same compound?
**A.** Its value is 100%.

**Q.** And the “Percent Control” value (human kinome [16]; FLT3(ITD))?
**A.** Its value is 100%.

**Q.** And the “Percent Control” value (human kinome [16]; FLT3(ITD,D835V))?
**A.** The value was 100%.

**Q.** What about the “Percent Control” value (human kinome [16]; FLT3(ITD,F691L)) of the same compound?
**A.** Its value is 99%.

**Q.** What about the remaining binding at 0.1 µM (human kinome [17]) of the same compound?
**A.** Its remaining binding at 0.1 µM is 96%.

**Q.** And the remaining binding at 0.1 µM (human kinome [18]; PKN2, 100 nM)?
**A.** Its remaining binding at 0.1 µM is 96%.

**Q.** And the remaining binding at 1 µM (human kinome [18]; kinase PKN2 (Entrez PKN2), compound concentration 1000 nM)?
**A.** The remaining binding at 1 µM was 92%.

**Q.** What about the remaining binding at 0.1 µM (human kinome [19]; PIK3CA(E545A), 100 nM) of the same compound?
**A.** The remaining binding at 0.1 µM was 71%.

**Q.** What about the remaining binding at 1 µM (human kinome [19]; kinase PIK3CA(E545A) (Entrez PIK3CA), compound concentration 1000 nM) of the same compound?
**A.** The remaining binding at 1 µM was 98%.

**Q.** What about the remaining binding at 0.1 µM (human kinome [20]; PRKR (Entrez EIF2AK2), 100 nM) of the same compound?
**A.** Its remaining binding at 0.1 µM is 100%.

**Q.** What about the remaining binding at 1 µM (human kinome [20]; kinase PRKR (Entrez EIF2AK2), compound concentration 1000 nM) of the same compound?
**A.** Its remaining binding at 1 µM is 100%.

**Q.** What about the remaining binding at 0.1 µM (human kinome [21]; PRKCE, 100 nM) of the same compound?
**A.** Its remaining binding at 0.1 µM is 58%.

**Q.** And the remaining binding at 1 µM (human kinome [21]; kinase PRKCE (Entrez PRKCE), compound concentration 1000 nM)?
**A.** The remaining binding at 1 µM was 99%.

**Q.** What about the remaining binding at 1 µM (human kinome [22]) of the same compound?
**A.** The remaining binding at 1 µM was 77%.

**Q.** What about the remaining binding at 0.1 µM (human kinome [23]) of the same compound?
**A.** The remaining binding at 0.1 µM was 100%.

**Q.** What about the remaining binding at 0.1 µM (human kinome [24]; PHKG1, 100 nM) of the same compound?
**A.** Its remaining binding at 0.1 µM is 97%.

**Q.** And the remaining binding at 1 µM (human kinome [24]; kinase PHKG1 (Entrez PHKG1), compound concentration 1000 nM)?
**A.** Its remaining binding at 1 µM is 96%.

**Q.** What about the remaining binding at 0.1 µM (human kinome [25]) of the same compound?
**A.** The remaining binding at 0.1 µM was 79%.

**Q.** What about the remaining binding at 0.1 µM (human kinome [26]; NEK6, 100 nM) of the same compound?
**A.** The remaining binding at 0.1 µM was 100%.

**Q.** And the remaining binding at 1 µM (human kinome [26]; kinase NEK6 (Entrez NEK6), compound concentration 1000 nM)?
**A.** Its remaining binding at 1 µM is 93%.

**Q.** What about the remaining binding at 0.1 µM (human kinome [27]) of the same compound?
**A.** Its remaining binding at 0.1 µM is 100%.

**Q.** And the remaining binding at 1 µM (human kinome [28])?
**A.** Its remaining binding at 1 µM is 68%.
